Test results: patent US10494402B2, “Peptides that stimulate subcutaneous adipogenesis” (The Regents of the University of California, priority 2012, dated 2019)

How the values were obtained:
[1] = test system: 2D rat Pre-adipocytes (rat mesenchymal stem cells); assay: Adipogenic potential ranking in 2D tissue culture, rat pre-adipocytes; assay type: cell-based; conditions: ranked on a scale of 0-5 with 5 representing the highest possible score
Experimental: (§1) Examples of the adipogenic effects of RHAMM antagonists (peptide B (SEQ ID NO: 2), peptide P15-1 (SEQ ID NO. 1), and the antibody to peptide B) are summarized in Table 1. Peptide P15-1, peptide B, and a RHAMM antibody were assayed for their effects on pre-adipocyte stem cells in culture and when injected into the dermis of aged rats. Reagents were ranked on a scale of 0-5 with 5 representing the highest possible score and a completely filled in Harvey ball. “2D” refers to two-dimensional tissue culture.

[2] = test system: 2D human Pre-adipocytes; assay: Adipogenic potential ranking in 2D tissue culture, human pre-adipocytes; assay type: cell-based; conditions: scale of 0-5, 5 highest
Experimental: as §1

[3] = test system: RHAMM; assay: Blocking of RHAMM function; conditions: competitive blocker / direct binding
Text: (§2) We hypothesized that the fragment and the antibody were blocking RHAMM function by competitive inhibition and by direct binding/blocking of RHAMM, respectively. Using truncation analyses, the size of the peptide was further reduced to 32 amino acids ([…] (SEQ ID NO: 92)) and it was shown that adipogenic activity is localized to a 15 amino acid peptide (KLKDENSQLKSEVSK (SEQ ID NO: 2); “peptide B” or “B-1” herein) shown in FIG. 2. This peptide was chemically synthesized to use as a competitive blocker, and antibodies were prepared against this sequence tagged with keyhold lymphocyte hemacyanin (KLH) to directly bind/block RHAMM function.

[4] = test system: Human pre-adipocytes; assay: Adipogenesis in 3D collagen gel culture; assay type: cell-based; conditions: 3D collagen gels in the presence of adipogenic cocktail
Experimental: The adipogenic activity of peptide B (SEQ ID NO:2) was also examined using a three-dimensional (3D) culture system that models human skin.
Human pre-adipocytes were cultured in 3D collagen gels in the presence of the adipogenic cocktail described above (Adipocyte Differentiation Medium (ZenBio catalog no. DM-2)) and exposed to peptide B (SEQ ID NO: 2). […] The 3D results predict the ability of the B peptide to promote adipogenesis in vivo.

[5] = test system: mesenchymal stem cells or papillary fibroblasts; assay: Adipogenesis by RHAMM antagonists in tissue culture and in vivo (summary statements)
Text: as §2
The RHAMM sequence that contains adipogenic activity also contains the hyaluronan binding region of this protein.
All of these reagents can replace insulin in their ability to promote adipogenesis in mesenchymal stem cells or papillary fibroblasts.

[6] = test system: nude guinea pigs; assay: Subcutaneous fat deposition in nude guinea pigs; assay type: in vivo, guinea pig; conditions: injection on upper back and in ear fat pad; control collagen gel vehicle only
Experimental: Peptide B (SEQ ID NO: 2) was also tested for its effect in nude guinea pigs since their skin structure resembles human facial skin. In particular, the skin of this animal model is more similar to human skin than is rat skin, in that it is hairless and the keratinocyte layer is thicker than in the rat model. […] Thus, peptide B was effective in promoting adipogenesis in this nude guinea pig model.

[7] = test system: Female Fisher retired breeder rats; assay: In vivo adipogenic activity in female retired breeder rat model; conditions: 100 μg subcutaneous in 1 ml collagen vehicle; 7 days
Experimental: The adipogenic activity of the KSEVSK 6-mer (SEQ ID NO: 3) was also evaluated in vivo in a female retired breeder rat model. Female Fisher retired breeder rats (>9 months old) were used in these studies. The rats were injected subcutaneously with a 100 μg dose of the KSEVSK 6-mer peptide in 1 ml of a collagen vehicle or with collagen vehicle alone. The collagen vehicle contained 1 mg/ml of rat tail Type I collagen. […] Rats were injected with KSEVSK 6-mer peptide and collagen vehicle at sites A and C and with collagen vehicle only at sites B and D. Animals were maintained on a regular diet for 7 days and then euthanized Skin was harvested by cutting around the injected area, ensuring that underlying adipose tissue was retained with the skin at the injection sites. The tissue was then photographed and fat accumulation was assessed.

KLKDENSQLKSEVSK [peptide B]
adipogenic potential, 2D rat Pre-adipocytes (rat mesenchymal stem cells) [1]: 5 | adipogenic potential, 2D human Pre-adipocytes [2]: 5 | RHAMM function [3]: effectively block RHAMM function | adipogenesis (light refractory lipid droplets) [4]: promoted adipogenesis | adipogenesis in tissue culture and in vivo [5]: promote adipogenesis in tissue culture and in vivo | adipogenicity relative to the other reagents of Table 1 [5]: the most adipogenic of these reagents | subcutaneous fat deposition (H and E staining) [6]: increase in subcutaneous fat deposition

KSEVSK [KSEVSK 6-mer]
fat pad surface area vs collagen vehicle alone [7]: significantly larger
